Assay results from patent US20240059685A1, “PIEZO1 AGONISTS FOR THE PROMOTION OF BONE FORMATION” (BIOVENTURES, LLC, priority 2019, published 2024).
“Also recorded” adds a separate entry of the source.

Key:
MLO-Y4 cells = assay: ATP production in MLO-Y4 cells; assay type: cell-based, murine; conditions: 30 minutes, different doses
calvaria cells [1] = assay: Oxygen consumption rate and ATP production (seahorse) in wildtype and Piezo1 knockout calvaria cells; assay type: cell-based; conditions: 10 μM, 1 hour; for changes in mitochondrial oxygen consumption rate in cells lacking Piezo1 / increases in ATP production in Piezo1 knockout cells: Piezo1 knockout calvaria cells
Experimental: To determine whether activation of Piezo1 by Yoda1 or YW-3-170 is associated with increased mitochondrial function, we measured oxygen consumption rate and ATP production in calvaria cells treated by Yoda1 or YW-3-170. Wildtype and Piezo1 knockout calvarial cells were cultured in α-MEM medium supplemented with 10% fetal bovine serum and treated with 10 μM Yoda1 or YW-3-170 for 1 hour. Oxygen consumption rate and ATP production were measured using seahorse. […] Importantly, these increases were diminished in Piezo1 knockout cells.

Piezo1 = target: T1, Piezo1 (Mus musculus, UniProt E2JF22); assay: Activation of Piezo1 in MLO-Y4 cells, overall conclusion from gene expression and calcium influx; assay type: cell-based, murine
T1 construct: To identify Piezo1 stimulators, we treated MLO-Y4 cells with compounds; endogenous in cells; host or cells: MLO-Y4 (murine osteocyte-like cell line); control sh-Luc cells, with sh-Piezo1 knock-down cells as the specificity control
T1 sequence (E2JF22 whole entry): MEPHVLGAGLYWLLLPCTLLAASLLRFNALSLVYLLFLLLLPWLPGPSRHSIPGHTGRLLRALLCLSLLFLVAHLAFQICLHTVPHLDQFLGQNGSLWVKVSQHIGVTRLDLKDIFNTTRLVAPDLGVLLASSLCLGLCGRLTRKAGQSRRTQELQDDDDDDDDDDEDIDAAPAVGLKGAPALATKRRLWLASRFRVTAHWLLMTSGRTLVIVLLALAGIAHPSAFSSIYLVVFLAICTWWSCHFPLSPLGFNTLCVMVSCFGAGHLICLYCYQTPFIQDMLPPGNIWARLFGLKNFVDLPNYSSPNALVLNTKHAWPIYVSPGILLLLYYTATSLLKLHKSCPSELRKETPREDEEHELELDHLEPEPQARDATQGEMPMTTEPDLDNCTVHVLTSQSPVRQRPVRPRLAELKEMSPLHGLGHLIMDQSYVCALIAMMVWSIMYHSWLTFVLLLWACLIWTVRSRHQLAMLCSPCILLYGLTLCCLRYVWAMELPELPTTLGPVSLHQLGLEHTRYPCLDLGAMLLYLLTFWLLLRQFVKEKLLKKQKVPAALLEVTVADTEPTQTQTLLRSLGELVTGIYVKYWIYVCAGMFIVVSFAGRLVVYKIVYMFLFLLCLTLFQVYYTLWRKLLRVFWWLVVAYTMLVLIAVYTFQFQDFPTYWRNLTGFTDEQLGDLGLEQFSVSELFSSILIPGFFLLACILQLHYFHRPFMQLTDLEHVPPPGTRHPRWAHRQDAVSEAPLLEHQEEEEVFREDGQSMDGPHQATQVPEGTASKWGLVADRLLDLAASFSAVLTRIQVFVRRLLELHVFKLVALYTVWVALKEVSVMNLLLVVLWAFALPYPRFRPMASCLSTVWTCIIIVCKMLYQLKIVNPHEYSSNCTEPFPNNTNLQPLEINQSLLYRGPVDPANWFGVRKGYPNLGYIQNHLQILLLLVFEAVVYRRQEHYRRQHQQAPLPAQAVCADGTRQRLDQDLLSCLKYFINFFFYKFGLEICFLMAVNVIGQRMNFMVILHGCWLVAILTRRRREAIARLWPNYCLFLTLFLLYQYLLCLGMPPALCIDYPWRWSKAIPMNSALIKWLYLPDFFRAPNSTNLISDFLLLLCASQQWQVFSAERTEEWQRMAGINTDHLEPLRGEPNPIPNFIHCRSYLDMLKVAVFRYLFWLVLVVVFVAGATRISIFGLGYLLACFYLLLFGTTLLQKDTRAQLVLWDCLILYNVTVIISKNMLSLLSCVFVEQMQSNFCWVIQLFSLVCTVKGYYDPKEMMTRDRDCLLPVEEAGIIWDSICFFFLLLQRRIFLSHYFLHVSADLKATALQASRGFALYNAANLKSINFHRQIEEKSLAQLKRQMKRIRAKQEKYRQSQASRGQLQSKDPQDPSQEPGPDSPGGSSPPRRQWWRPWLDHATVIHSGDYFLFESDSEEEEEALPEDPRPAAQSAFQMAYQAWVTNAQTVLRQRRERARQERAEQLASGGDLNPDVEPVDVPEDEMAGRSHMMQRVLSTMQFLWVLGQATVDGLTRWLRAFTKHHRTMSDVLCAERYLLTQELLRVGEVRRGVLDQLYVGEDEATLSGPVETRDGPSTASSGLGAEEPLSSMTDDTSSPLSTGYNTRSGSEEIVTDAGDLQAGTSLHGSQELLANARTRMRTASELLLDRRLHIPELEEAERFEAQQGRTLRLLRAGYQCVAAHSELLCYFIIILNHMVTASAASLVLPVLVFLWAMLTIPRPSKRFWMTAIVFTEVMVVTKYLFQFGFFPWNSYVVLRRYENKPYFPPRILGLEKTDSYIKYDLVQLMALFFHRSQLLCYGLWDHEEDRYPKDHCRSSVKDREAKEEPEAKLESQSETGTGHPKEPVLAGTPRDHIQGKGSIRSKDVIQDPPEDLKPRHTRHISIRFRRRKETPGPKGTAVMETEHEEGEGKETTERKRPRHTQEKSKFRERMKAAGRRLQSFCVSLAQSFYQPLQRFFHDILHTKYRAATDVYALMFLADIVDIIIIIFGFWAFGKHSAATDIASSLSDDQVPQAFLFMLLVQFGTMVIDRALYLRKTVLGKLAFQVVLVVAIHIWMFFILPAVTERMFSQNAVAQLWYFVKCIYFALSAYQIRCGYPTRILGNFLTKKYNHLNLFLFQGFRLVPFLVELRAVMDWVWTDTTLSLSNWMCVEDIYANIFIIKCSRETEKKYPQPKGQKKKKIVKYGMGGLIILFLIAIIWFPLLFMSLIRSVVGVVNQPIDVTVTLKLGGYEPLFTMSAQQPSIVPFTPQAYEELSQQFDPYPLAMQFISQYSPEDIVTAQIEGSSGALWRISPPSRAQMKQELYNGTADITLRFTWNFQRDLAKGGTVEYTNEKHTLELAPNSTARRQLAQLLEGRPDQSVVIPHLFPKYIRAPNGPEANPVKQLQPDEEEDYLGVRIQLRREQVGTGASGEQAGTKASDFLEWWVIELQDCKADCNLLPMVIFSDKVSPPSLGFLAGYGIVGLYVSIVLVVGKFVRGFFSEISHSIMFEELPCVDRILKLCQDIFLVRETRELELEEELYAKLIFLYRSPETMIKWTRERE
Experimental: To identify Piezo1 stimulators, we treated MLO-Y4 cells with compounds Yoda1, YW-3-159, W-3-163, W-3-168-1, W-3-168-2, W-3-170, W-3-173-1, W-3-173-2, and YW-3-174. Gene expression of Wnt1, Ptgs2, and Tnfrsf11b was measured to determine the activation of Piezo1. In addition, intracellular calcium concentration was measured to determine the activity of Piezo1 channel. […] Yoda1 was used as a positive control in all experiments.

calvaria cells [2] = assay: Mitochondria staining (MitoBright dye) in wildtype and Piezo1 knockout calvaria cells; assay type: cell-based; conditions: 10 μM, 24 hours; for increases in mitochondria staining in Piezo1 knockout cells: Piezo1 knockout calvaria cells; for mitochondria staining: wildtype calvaria cells
Experimental: Next, we determined whether Yoda1 or YW-3-170 increase mitochondria number in primary calvaria cells. Wildtype and Piezo1 knockout calvarial cells were treated with 10 μM Yoda1 or YW-3-170 for 24 hours and then were stained for Mitochondria using MitoBright dye. […] However, these increases were blunted in Piezo1 knockout cells. […] The fluorescence intensity was quantified using the ImageJ software.

[3] = test system: osteocyte-enriched cortical bone; assay: Wnt1 expression in tibia after one Yoda1 injection; assay type: in vivo; conditions: 4-month-old female C57BL/6J mice, one injection 5 μmol/kg intraperitoneally, tibiae 4 hours later
Experimental: To quantify cancellous bone formation, we injected mice with calcein (20 mg/kg body weight) intraperitoneally 7 and 3 days before harvest. To quantify periosteal and endocortical bone formation, we injected mice with calcein (20 mg/kg body weight) and Alizarin Red (20 mg/kg body weight) 10 and 3 days before harvest. For gene expression, we injected Yoda1 into 4-month-old female C57BL/6J mice one time and harvested tibiae 4 hours later for RNA extraction. For bone mass evaluation, we injected Yoda1 into 4-month-old female C57BL/6J mice 5 consecutive days per week for 2 weeks (day 1-5 and day 8-12) and harvested the mice at day 15 for analysis. […]
Quantitative PCR. […] We performed quantitative RT-PCR using the following Taqman assays from Applied Biosystems: Piezo1 (Mm01241549_m1); Piezo2 (Mm01265861_m1); Ptgs2 (Mm00478374_m1); Cyr61 (Mm00487498_m1); Wnt1 (Mm01300-555_g1); Yap1 (Mm011432-63_m1); Taz (Mm01289583_m1); Tnfsf11 Mm00441906_m1; Tnfrsf11b (Mm00435452_m1); Sost (Mm00470479_m1); and ribosomal protein S2 (Mrps2) (Mm00475529_m1). We calculated relative mRNA amounts using the ΔCt method (Livak and Schmittgen, 2001). […] We obtained two custom Taqman assays from Applied Biosystems for quantifying Piezo1 gene deletion efficiency: one specific for sequences between the loxP sites and the other specific for sequences downstream from the 3′ loxP site.

Fc1ccc(Cl)c(CSc2nnc(-c3cnccn3)s2)c1Cl [YW-3-170]
ATP production (MLO-Y4 cells): increased ATP production in MLO-Y4 cells in a dose-dependent manner | changes in mitochondrial oxygen consumption rate in cells lacking Piezo1 (calvaria cells [1]): significantly blunted | increases in ATP production in Piezo1 knockout cells (calvaria cells [1]): diminished | ATP production (calvaria cells [1]; wildtype calvaria cells): increase | ATP production compared with Yoda1 (calvaria cells [1]; wildtype calvaria cells): more ATP production than Yoda1 | mitochondrial oxygen consumption rate at basal level as well as stimulated level (calvaria cells [1]; wildtype calvaria cells): increased | mitochondrial oxygen consumption rate at basal level as well as stimulated level (calvaria cells [1]; wildtype calvaria cells, listed as 170): increase | Piezo1 agonist activity (conclusion in words) (Piezo1; MLO-Y4 cells): potent agonists for Piezo1; also recorded: potent and specific Piezo1 agonists | activity in activating Piezo1 compared to Yoda1 (Piezo1; MLO-Y4 cells in vitro): comparable or superior activity | increases in mitochondria staining in Piezo1 knockout cells (calvaria cells [2]; listed as 170): requires Piezo1 | increases in mitochondria staining in Piezo1 knockout cells (calvaria cells [2]; listed as compound I): blunted | stimulation of mitochondria staining compared with Yoda1 (calvaria cells [2]; calvaria cells): more potent stimulation of mitochondria staining than Yoda1 | mitochondria staining (calvaria cells [2]; listed as 170): increase | mitochondria staining (calvaria cells [2]; listed as compound I): increased

Clc1cccc(Cl)c1CSc1nnc(-c2cnccn2)s1 [Yoda1]
ATP production (MLO-Y4 cells): increased ATP production in MLO-Y4 cells in a dose-dependent manner | changes in mitochondrial oxygen consumption rate in cells lacking Piezo1 (calvaria cells [1]): significantly blunted | increases in ATP production in Piezo1 knockout cells (calvaria cells [1]): diminished | ATP production (calvaria cells [1]; wildtype calvaria cells): stimulated; also recorded: increase | mitochondrial oxygen consumption rate at basal level as well as stimulated level (calvaria cells [1]; wildtype calvaria cells): increase | Wnt1 expression in osteocyte-enriched cortical bone in vivo [3]: increased | increases in mitochondria staining in Piezo1 knockout cells (calvaria cells [2]): blunted; also recorded: requires Piezo1 | mitochondria staining (calvaria cells [2]): increase
